One assay relates to brain of ischemic mice. The experiment in a line: Cerebral ischemia in mice with common carotid artery ligation and reperfusion (brain LDH and SOD). The assay is classed as in vivo. Particulars: 2 mg/kg tail i.v. Here is the method:
Grouped mice were respectively administered test substance, nimodipine or normal salt by tail intravenous injection. After 15 minutes, the mice were anesthetized with 3.5% chloral hydrate, fixed in the back. The right and left common carotid artery and vagus nerve were exposed, and 4-0 suture was inserted under the bilateral carotid artery. The suture was tightened to block blood flow for 5 minutes. Then the line was loosened to restore blood flow for 10 minutes. The operation was repeated three times, and an ischemia-reperfusion model in mice was established. After the last reperfusion, the mice were decapitated and brain collected. In the control group, only the bilateral carotid arteries were exposed, without a suture being inserted.

The next assay relates to decapitated mice. The experiment in a line: Breathing time, breathing frequency, brain index and brain water content in decapitated mice. The assay is classed as in vivo, ICR mice. Particulars: 2 mg/kg tail i.v. Here is the method: The model group was administrated normal salt. At 15 minutes after administration, the mice were decapitated by a pair of scissors. The mouth breathing time, breathing frequency and brain water content were recorded and compared with other groups. Whole brains were collected. After the wet weight was obtained, they were dried in an oven at 100° C. for 24 hours. The average value was taken to calculate brain water content: brain water content (%)=[…]. Brain index: brain index=brain wet weight (g)/body weight (g)×100%.

In the assay on brain of ischemic mice, `COCCOC(=O)C1=C(C)NC(C)=C(C(=O)OC(C)C)C1c1cccc([N+](=O)[O-])c1` (stereo not drawn) [Nimodipine, nimodipine] registered an LDH of 11.3 ± 6.6 U/mg and an SOD of 144.77 ± 21.61 U/mg. For the same compound, the Brain water content in the assay on decapitated mice is on record as 75.8 ± 1.0 %.

Source of the values: patent publication US20090170801A1 (Beijing Century Biocom Pharmaceutical Technology Co. Ltd., priority 2006, published 2009).
